Source: PMC9274004, “Deciphering the Molecular Interaction Between the Adhesion G Protein-Coupled Receptor ADGRV1 and its PDZ-Containing Regulator PDZD7” (Frontiers in Molecular Biosciences, 2022)
Where no end group is shown, it is not given here.

Columns and labels:
[1] = target: T1, PDZD7 N-PDZ1ext (Mus musculus, UniProt E9Q9W7); assay: NMR titration of N-PDZ1ext with ADGRV1 ligands; type: binding, murine; details: NMR titration, 25°C; SD over at least ten shifting peaks; read-out: Kd (Peptide)
T1 construct: including the N-terminus of the protein (N-PDZ1ext construct; M1-E192); GST (followed by TEV site) (N, cleaved yes); made in house; host or cells: E. coli BL21 DE3
T1 sequence (E9Q9W7 1-192): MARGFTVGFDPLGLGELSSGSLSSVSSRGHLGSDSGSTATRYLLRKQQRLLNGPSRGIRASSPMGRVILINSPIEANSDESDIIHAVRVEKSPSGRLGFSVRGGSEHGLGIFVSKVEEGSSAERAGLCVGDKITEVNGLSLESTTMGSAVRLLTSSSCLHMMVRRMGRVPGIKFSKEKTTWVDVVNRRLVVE
Method: (§1) All experiments were recorded at 25°C on a Bruker 800 MHz spectrometer equipped with a triple resonance ^1H{^13C/^15N} cryoprobe. The ^1H, ^15 N and ^13C backbone resonances assignment of PDZ1ext was carried out using 3D HNCA, HNCACB, HNCO, HNCOCA experiments (Tris HCl buffer adjusted to pH 6). The 2D ^1H-^15N HSQC spectra used to compare PDZ1, PDZ1ext, PDZ2 and PDZ2ext were recorded in Tris HCl pH 7.5 (50 mM). The 2D ^1H-^15N HSQC spectra used to compare PDZ1ext, PDZ2ext and P1P2 were recorded in Phosphate Buffer pH 6.5 (50 mM). Titration experiments of PDZ1 (WT), PDZ1ext (WT) and PDZ1ext (G103R) against ADGRV1pbm peptide were performed in Tris HCl pH 7.5 (50 mM). Averaged Chemical Shifts Perturbations (CSP) were calculated as: Δδavg = ((Δδ(^1H))^2+(Δδ(^15N)*0.159)^2)^½. For the determination of dissociation constants (Kd) of each peptide/PDZ interaction, averaged CSP δavg was plotted as a function of the molar ratio (peptide/PDZ) for several peaks and fitted using nonlinear regression and assuming a simple complex formation model.
The P1P2 tandem of PDZD7 is preceded by 80 residues with no predicted secondary or tertiary structure, but which could contribute to the interaction with ADGRV1. […] We first aimed at identifying potential secondary structures in both PDZD7 N-terminal region and ADGRV1 cytoplasmic domain. To this end, we produced both an extended PDZ1ext construct, including the N-terminus of the protein (N-PDZ1ext construct; M1-E192) and the whole ADGRV1 cytoplasmic domain of 152 residues.
On the overlay of PDZ1ext and N-PDZ1ext HSQC spectra, there is no significant chemical shift changes on PDZ1ext due to the presence of the N-terminal region (CSPs <0.04 ppm). […] We used the entire cytoplasmic domain of ADGRV1 as partner of PDZD7 in NMR and fluorescence titrations experiments. […] Finally, we measured Kd values in the few micromolar range between the tandem P1P2 and the whole cytoplasmic domain and the last 13 residues of ADGRV1 by fluorescence experiments.

[2] = target: T2, PDZD7 PDZ1 (81-167) (Mus musculus, UniProt E9Q9W7); assay: NMR titration of PDZ1 with ADGRV1 ligands; type: binding, murine; details: NMR titration (1H-15N HSQC CSP), Tris HCl pH 7.5 (50 mM), 25°C; SD of Kd over at least ten shifting peaks
T2 construct: (Uniprot entry E9Q9W7-1); PDZ1 (81-167); GST (followed by TEV site) (N, cleaved yes); made in house; host or cells: E. coli BL21 DE3
Method: as §1, with “For the determination of dissociation constants (Kd) of each peptide/PDZ interaction, averaged CSP δavg was plotted as a function of the molar ratio (peptide/PDZ) for several peaks and fitted using nonlinear regression and assuming a simple complex formation model.” left out
We monitored the interaction between PDZD7 constructs and a peptide (ADGRV1pbm) corresponding to the last 13 residues of ADGRV1, encompassing its PBM (sequence VELRRIPIADTHL-COOH; PBM underlined). We measured apparent Kd values of our constructs towards ADGRV1pbm using several biophysical methods (NMR, fluorescence, MicroScale Thermophoresis (MST)) (Table 1; Supplementary Figure S3–S5). […]

- Kd [1]: 270 ± 21 µM
- Kd [2]: 1310 µM
Sequence: VELRRIPIADTHL [ADGRV1pbm]
